In assay [1] the target is EGFR (d746-750 (d19)/T790M) (Homo sapiens (Human), UniProt P00533, DEL746-750/T790M). Kind of assay: Inhibitory activity for EGFR (d746-750 (d19)/T790M) kinase. Format: biochemical. The note with it: ATP 5 μM. The essentials: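 Recombinant EGFR d746-750/T790M (0.003 ng/μL final) preincubated 30 min with compound (10 to 0.0024 nM, 4-fold steps), then 5 μM ATP and 0.1 μM ULight-poly GT added for 2 h at room temperature. EDTA stop, Eu-anti-phosphotyrosine TR-FRET read (665 nm); IC50 by four-parameter fit.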
Chain of EGFR (d746-750 (d19)/T790M) (P00533 other isoform, or with tags, fused parts or gaps T790M/del 1-668/del 746-750 limits assumed): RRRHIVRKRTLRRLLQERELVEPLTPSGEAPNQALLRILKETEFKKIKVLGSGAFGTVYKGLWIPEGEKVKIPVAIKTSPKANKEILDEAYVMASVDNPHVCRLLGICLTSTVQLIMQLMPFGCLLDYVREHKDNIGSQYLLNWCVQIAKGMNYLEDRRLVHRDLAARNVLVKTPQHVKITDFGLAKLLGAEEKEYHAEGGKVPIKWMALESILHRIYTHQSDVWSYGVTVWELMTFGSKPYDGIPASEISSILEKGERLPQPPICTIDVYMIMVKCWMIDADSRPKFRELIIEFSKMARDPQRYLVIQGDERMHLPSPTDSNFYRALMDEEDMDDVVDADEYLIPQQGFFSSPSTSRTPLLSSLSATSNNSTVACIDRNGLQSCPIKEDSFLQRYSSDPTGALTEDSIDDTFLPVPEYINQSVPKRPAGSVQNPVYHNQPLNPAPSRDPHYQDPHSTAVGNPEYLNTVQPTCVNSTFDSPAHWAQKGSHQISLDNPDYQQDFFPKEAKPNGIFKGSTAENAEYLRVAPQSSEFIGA

Assay [2] concerns the target EGFR (d746-750/T790M/C797S) (Homo sapiens (Human), UniProt P00533, C797S/DEL746-750/T790M). Kind of assay: Inhibitory activity for EGFR (d746-750/T790M/C797S) kinase. The conditions noted are these: ATP 5 μM; read-out: EGFR(d19/T790M/C797S) (IC50). Format: biochemical. The essentials: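 EGFR d746-750/T790M/C797S (0.03 ng/μL final) preincubated 30 min with compound (10 nM–0.0024 nM, 4-fold, 7 points). Reaction with 5 μM ATP and 0.1 μM ULight-poly GT, 2 h at room temperature; EDTA stop, Eu-anti-phosphotyrosine TR-FRET read at 665 nm, IC50 by four-parameter fit.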

The subject of assay [3] is BAF3-EGFR (L858R/T790M/C797S) cells. The assay is described as follows: Inhibition of proliferation of BAF3-EGFR (L858R/T790M/C797S) cells, CCK-8. Format: cell-based. The conditions noted are these: 72 h, read-out: BAF3(EGFR T790M L858R C797S) cell inhibitory activity IC50. In a few lines:
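BaF3 EGFR L858R/T790M/C797S cells seeded at 1.5×10^5 cells/mL in RPMI + 10% FBS, 37 °C, compound added after overnight, duplicates. Viability by CCK-8; % inhibition vs untreated and blank, IC50 by four-parameter fit.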

Assay [4] deals with PC-9 EGFR-Del19-T790M-C797S cells. Kind of assay: Inhibition of proliferation of PC-9-EGFR (Del19 T790M C797S) cells, CCK-8. Format: cell-based. The conditions noted are these: 72 h, read-out: PC-9-EGFR (Del19 T790M C797S) cell inhibitory activity IC50. The essentials:
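Cells seeded at 2×10^4 cells/mL were treated 72 h with compound at 1000 nM-0.06 nM final, in replicate wells. CCK-8 absorbance at 450 nm after 2 h gave inhibition rate relative to negative control and blank. IC50 from four-parameter fit against log concentration.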

IC50 data for ten compounds are collected here from patent US20250034165A1, “COMPOUND CONTAINING CYCLOALKYL OR HALOALKYL” (CHIA TAI TIANQING PHARMACEUTICAL GROUP CO., LTD., priority 2021, published 2025).

Each structure is given as a SMILES string. Where two headings read alike, the source gives them in different places.

Chain of EGFR (d746-750/T790M/C797S) (P00533 other isoform, or with tags, fused parts or gaps T790M/C797S/del 1-694/del 746-750 limits assumed): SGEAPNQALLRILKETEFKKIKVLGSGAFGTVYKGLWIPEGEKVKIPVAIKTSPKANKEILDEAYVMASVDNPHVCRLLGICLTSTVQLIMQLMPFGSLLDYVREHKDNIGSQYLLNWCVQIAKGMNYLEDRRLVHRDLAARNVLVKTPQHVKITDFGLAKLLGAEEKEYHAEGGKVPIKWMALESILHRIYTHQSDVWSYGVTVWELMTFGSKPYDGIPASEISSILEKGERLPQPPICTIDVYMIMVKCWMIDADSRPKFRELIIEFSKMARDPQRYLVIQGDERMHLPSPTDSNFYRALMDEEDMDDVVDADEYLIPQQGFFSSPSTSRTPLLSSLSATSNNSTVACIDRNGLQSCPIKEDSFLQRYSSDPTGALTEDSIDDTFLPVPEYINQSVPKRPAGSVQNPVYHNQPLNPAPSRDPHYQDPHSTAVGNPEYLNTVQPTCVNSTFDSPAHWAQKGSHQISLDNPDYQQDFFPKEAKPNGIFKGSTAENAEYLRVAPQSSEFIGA

Consider `Cc1cc2cc(n1)-c1cnn(C)c1OC[C@H](C1CC1)CCCn1c(nc3cc(NC4COC4)ccc31)NC2=O` [Example 60], for which the IC50 worked out at 0.039 nM in assay [1] and 0.07 nM in assay [2].
Consider `Cc1cc2cc(n1)-c1cnn(C)c1OCCC[C@@H](C1CC1)CN1/C(=N/C2=O)Nc2ccc(NCCN(C)C)cc21` [Example 28], for which the IC50 in assay [1] was 0.0072 nM; in assay [2], 0.011 nM; in assay [3] (Ba/F3 EGFR), below 5 nM; in assay [4] it was below 50 nM.
Regarding `Cc1cc2cc(n1)-c1cnn(C)c1OCCC[C@@H](C1CC1)CN1/C(=N/C2=O)Nc2cc(NC3(C(F)(F)F)COC3)ccc21` [Example 88], the IC50 in assay [1] was 0.044 nM; in assay [2], 0.181 nM; in assay [3] (Ba/F3 EGFR), below 5 nM.
With `Cc1cc2cc(n1)-c1cnn(C)c1OCCC[C@@H](C1CC1)CN1/C(=N/C2=O)Nc2cc(N[C@H]3CC[C@@H](N(C)C)CC3)ccc21` [Example 26], the IC50 in assay [1] is 0.011 nM; in assay [2], 0.017 nM; in assay [3], below 5 nM; in assay [4], below 50 nM.
The corresponding values for `Cc1cc2cc(n1)-c1cnn(C)c1OCCC[C@@H](C1CC1)CN1/C(=N/C2=O)Nc2cc(N[C@H]3CC[C@H](N(C)C)CC3)ccc21` [Example 25] are 0.011 nM, 0.014 nM, below 5 nM and below 50 nM.
Regarding `Cc1cc2cc(n1)-c1cnn(C)c1OCCC[C@@H](C1CC1)CN1/C(=N/C2=O)Nc2cc(N[C@H](C)C3COC3)ccc21` [Example 39], the IC50 in assay [1] is 0.012 nM; in assay [2] it was 0.024 nM; in assay [3] it was below 5 nM; in assay [4] it was below 50 nM.
For `C[C@H](Nc1ccc2c(c1)N/C1=N\C(=O)c3cc(F)nc(c3)-c3cnn(C)c3OCCC[C@@H](C3CC3)CN12)C(F)(F)F` [Example 9], the IC50 came to 0.28 nM in assay [1] and 0.45 nM in assay [2].
The corresponding values for `Cc1cc2cc(n1)-c1cnn(C)c1OC[C@H](C1CC1)CCCn1c(nc3ccc(NC4COC4)cc31)NC2=O` [Example 59] are 0.04 nM and 0.074 nM.
On to `Cc1cc2cc(n1)-c1cnn(C)c1OCCC[C@@H](C1CC1)CN1/C(=N/C2=O)Nc2cc(NC3(C)COC3)ccc21` [Example 29], for which the IC50 in assay [1] is 0.0089 nM; in assay [2], 0.015 nM; in assay [3] (Ba/F3 EGFR), below 5 nM; in assay [4] it was below 50 nM.
With `Cc1cc2cc(n1)-c1cnn(C)c1OCCC[C@@H](C1CC1)CN1/C(=N/C2=O)Nc2ccc(C=CCCN(C)C)cc21` [Example 24], the IC50 in assay [1] was 0.016 nM; in assay [2] it was 0.021 nM; in assay [3], below 5 nM.
